In ChEMBL document CHEMBL5104114, “Synthesis and medicinal chemistry of tetronamides: Promising agrochemicals and antitumoral compounds” (Bioorg Med Chem, 2022):
Values after ≈ are worked out from the molar mass of the structure shown.

Key:
[1] = Toxicity in Myzus persicae assessed as mortality relative to control
Porphyromonas gingivalis = assay: Antibacterial activity against Porphyromonas gingivalis ATCC 33277 by REMA; assay type: functional
[2] = tested on: Mycobacterium tuberculosis; assay: Antibacterial activity against Mycobacterium tuberculosis ATCC 27294 by REMA; assay type: functional
[3] = Toxicity in Myzus persicae assessed as mortality at 20 mg/L relative to control; details: at 20 µg/mL
Pseudomonas aeruginosa = assay: Antibacterial activity against Pseudomonas aeruginosa; assay type: functional
Escherichia coli [4] = assay: Antibacterial activity against Escherichia coli; assay type: functional
Staphylococcus aureus = assay: Antibacterial activity against Staphylococcus aureus; assay type: functional
Synechococcus elongatus = assay: Antibacterial activity against Synechococcus elongatus PCC 6301 by plate reader method; assay type: functional, organism-based
P388 = assay: Cytotoxicity against mouse P388 cells measured after 48 hrs by MTT assay; assay type: functional, cell-based; details: P388, 48 h
SMMC-7721 = assay: Antiproliferative activity against human […] cells measured after 24 hrs by MTT assay; assay type: functional, cell-based; details: SMMC-7721, 24 h
MCF7 = assay: Antiproliferative activity against human MCF7 cells measured after 48 hrs by MTT assay; assay type: cell-based; details: MCF7, 48 h
DU-145 = assay: Antiproliferative activity against human DU-145 cells measured after 48 hrs by MTT assay; assay type: cell-based; details: DU-145, 48 h
HCT-116 = assay: Antiproliferative activity against human HCT-116 cells measured after 48 hrs by MTT assay; assay type: cell-based; details: HCT-116, 48 h
[5] = Cytotoxicity against human L02 cells measured after 24 hrs by MTT assay; assay type: toxicity, cell-based
A549 = assay: Antiproliferative activity against human A549 cells assessed as inhibition of cell growth at 100 uM by MTT assay relative to control; assay type: functional
[6] = Toxicity in Spodoptera littoralis larvae; parameters: species or system Larva
[7] = Toxicity in Aphis craccivora assessed as mortality at 100 mg/ml relative to control; parameters: dose or concentration left out as unconfirmed
[8] = Toxicity in Aphis gossypii assessed as mortality at 4 mg/L relative to control; details: at 4 µg/mL
[9] = Toxicity in Anopheles darlingi larvae measured after 48 hrs; parameters: species or system Larva
[10] = Toxicity in Myzus persicae assessed as mortality at 0.80 mg/L relative to control; details: at 0.8 µg/mL, dose 0.8 mg/L
[11] = Toxicity in Nilaparvata lugens assessed as mortality at 100 mg/ml relative to control; parameters: dose or concentration left out as unconfirmed
Leishmania amazonensis = assay: Antileishmanial activity against Leishmania amazonensis incubated for 24 hrs; assay type: functional, organism-based
[12] = Inhibition of mitochondrial complex III (unknown origin); parameters: species or system Homo sapiens
[13] = Toxicity in mouse engrafted with mouse L1210 cells assessed as lethal dose measured per […]; assay type: cell-based
Botrytis cinerea = assay: […] activity against Botrytis cinerea; assay type: functional
[14] = Inhibition of RNA in mouse L1210 cells; assay type: cell-based
Aeromonas salmonicida = assay: Antimicrobial activity against Aeromonas salmonicida ATCC 14174; assay type: functional
Streptomyces sp. = assay: Antibacterial activity against Streptomyces sp. ATCC 23836; assay type: functional
Brevibacillus brevis = assay: Antibacterial activity against Bacillus brevis; assay type: functional
Vibrio anguillarum = assay: Antibacterial activity against Vibrio anguillarum NCMB6; assay type: functional
[15] = Inhibition of DNA in mouse L1210 cells; assay type: cell-based
[16] = Reversal of heartbeat inhibition in embryonic chicken cardiac cells; assay type: functional, cell-based, Gallus gallus; details: cardiac muscle cell
[17] = biological target: ATP-sensitive inward rectifier potassium channel 1 (Homo sapiens, UniProt P48048); assay: Inhibition of ROMK (unknown origin) by Thallium Efflux assay
[18] = Toxicity in Nilaparvata lugens assessed as mortality at 20 mg/L relative to control; details: at 20 µg/mL
[19] = Toxicity in Aphis craccivora assessed as mortality at 20 mg/L relative to control; details: at 20 µg/mL
Escherichia coli [20] = assay: Antibacterial activity against Escherichia coli ATCC 25922; assay type: functional
Klebsiella pneumoniae = assay: Antibacterial activity against Klebsiella pneumoniae patient isolate; assay type: functional
[21] = Inhibition of histamine induced dermal vascular permeability in Sprague-Dawley rat blood vessels at 100 mg/kg, ip measured after 5 mins relative to control; assay type: functional; details: Blood vessel
[22] = Inhibition of serotonin induced dermal vascular permeability in Sprague-Dawley rat blood vessels at 100 mg/kg, ip measured after 5 mins relative to control; assay type: functional; details: Blood vessel
[23] = Inhibition of bradykinin induced dermal vascular permeability in Sprague-Dawley rat blood vessels at 100 mg/kg, ip measured after 5 mins relative to control; assay type: functional; details: Blood vessel

Sequence of ATP-sensitive inward rectifier potassium channel 1 (P48048 whole entry): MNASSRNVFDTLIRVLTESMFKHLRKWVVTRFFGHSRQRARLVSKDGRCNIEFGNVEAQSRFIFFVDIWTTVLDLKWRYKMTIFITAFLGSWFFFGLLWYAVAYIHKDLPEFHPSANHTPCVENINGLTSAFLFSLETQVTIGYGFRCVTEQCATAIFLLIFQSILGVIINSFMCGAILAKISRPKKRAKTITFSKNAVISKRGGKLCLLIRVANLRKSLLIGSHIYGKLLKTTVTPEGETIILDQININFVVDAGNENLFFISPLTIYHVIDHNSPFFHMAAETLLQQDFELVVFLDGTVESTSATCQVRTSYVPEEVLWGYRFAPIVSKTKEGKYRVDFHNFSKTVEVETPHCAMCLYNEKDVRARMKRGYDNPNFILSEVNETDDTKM

SMILES: N#CC1(c2cncc(Cl)c2)CC2CCC(C1)N2CC(F)F (stereo unspecified)
- Activity [1]: > 80%

SMILES: COc1cc(C2C3=C(COC3=O)Nc3cc4c(cc32)OCO4)c([N+](=O)[O-])cc1OC (stereo unspecified)
- MIC50 (Porphyromonas gingivalis): 25 µg/mL (≈ 60.6 µM)
- MIC50 [2]: 250 µg/mL (≈ 606 µM)

SMILES: O=C1C=C(N(CCF)Cc2cnc(Cl)c(Cl)c2)CO1
- Activity [3]: 100%

SMILES: O=C1OC2C(=C1Cl)N2Cc1ccccc1 (stereo unspecified)
- MIC50 (Pseudomonas aeruginosa): 16 µg/mL (≈ 72.2 µM)
- MIC50 (Escherichia coli [4]): 8 µg/mL (≈ 36.1 µM)
- MIC50 (Staphylococcus aureus): 4 µg/mL (≈ 18 µM)

SMILES: O=C1O[C@@H]([C@H](O)c2ccc(-c3ccccc3)cc2)C(Nc2ccc(Br)cc2)=C1Cl
- IC50 (Synechococcus elongatus): 1.3 µM

SMILES: COc1cc([C@@H]2c3cc4c(cc3[C@H](O)[C@H]3COC(=O)[C@H]23)OCO4)cc(OC)c1OC [PODOFILOX]
- IC50 (P388): 10.4 µM

SMILES: COC1OC(=O)C(Cl)=C1N1CCN(CCCCCC[C@H]2CN([C@@H]3OC4O[C@]5(C)CC[C@H]6[C@H](C)CC[C@@H]([C@H]3C)[C@@]46OO5)CCS2(=O)=O)CC1 (stereo partly specified)
- IC50 (SMMC-7721): 0.03 µM
- IC50 (MCF7): 0.01 µM
- IC50 (DU-145): 0.02 µM
- IC50 (HCT-116): 0.01 µM
- IC50 at 24 h [5]: 70 µM

SMILES: COc1cc(C2C3=C(COC3=O)Nc3cc4c(cc32)OCO4)cc(OC)c1OC (stereo unspecified)
- IC50 (P388): 4.53 µM

SMILES: CC[C@H](C)[C@H](NC1=C(Br)C(=O)O[C@@H]1O[C@@H]1C[C@H](C)CC[C@H]1C(C)C)C(=O)OC
- inhibition at 100 µM (A549): 97.2%

SMILES: CCOC(=O)[C@H](Cc1ccccc1)NC1=C(Cl)C(=O)O[C@@H]1O[C@@H]1C[C@H](C)CC[C@H]1C(C)C
- inhibition at 100 µM (A549): 91.8%

SMILES: CCCC[C@@]12[C@@H]3C[C@H]4[C@H]5[C@H](C)/C(=C6/OC(=O)C(C)=C6OC)O[C@]5(O3)[C@@H]1CCN42
- LC50 [6]: 2 µg/mL (≈ 5.16 µM)

SMILES: O=C1C=C(N(Cc2ccc(Cl)nc2)CC(F)F)CO1
- Activity [7]: 90%
- Activity [8]: 98%
- LC50 [9]: 1.18 µg/mL (≈ 4.09 µM)
- Activity [10]: 100%
- Activity [11]: 100%

SMILES: COc1cc2c(c(OC)c1OC)C(c1ccc(C(F)(F)F)cc1)C1=C(COC1=O)N2 (stereo unspecified)
- IC50 (Leishmania amazonensis): 6.22 µM

SMILES: Cc1ccc(NC2=C(Cl)C(=O)O[C@H]2[C@H](O)c2ccc(-c3ccccc3)cc2)cc1
- IC50 (Synechococcus elongatus): 4.4 µM

SMILES: NCCN(Cc1ccc(Cl)nc1)C1=CC(=O)OC1
- Activity [10]: 100%

SMILES: CCCCCC[C@H](O)CCC[C@H](O)[C@H]1CC[C@H]([C@H]2CC[C@H]([C@H](O)CCCCCCCCCCCCC3=C(N)[C@H](C)OC3=O)O2)O1
- IC50 [12]: 0.04 µM

SMILES: NC1=CC(=O)O/C1=C/C=O
- LC50 [13]: 6.25 mg
- MIC50 (Botrytis cinerea): 100 µg/mL (≈ 719 µM)
- IC50 [14]: 0.6 µg/mL (≈ 4.31 µM)
- MIC50 (Aeromonas salmonicida): 100 µg/mL (≈ 719 µM)
- MIC50 (Streptomyces sp.): 100 µg/mL (≈ 719 µM)
- MIC50 (Brevibacillus brevis): 50 µg/mL (≈ 359 µM)
- MIC50 (Vibrio anguillarum): 100 µg/mL (≈ 719 µM)
- IC50 [15]: 0.4 µg/mL (≈ 2.88 µM)

SMILES: CCOC(=O)C1C(C)NC2=C(C(=O)OC2)C1c1ccccc1OC(F)F (stereo unspecified)
- EC50 [16]: 0.06 µM

SMILES: Cc1c([C@H](O)CN2CCC3(CC2)CCN(C2=C(F)C(=O)OC2)CC3)ccc2c1COC2=O
- IC50 [17]: 0.007 µM

SMILES: CN(Cc1ccc(Cl)nc1)C1=C(Br)C(=O)OC1OCCF (stereo unspecified)
- Activity [18]: 92%
- Activity [19]: 100%

SMILES: CCN(CC)C1=C(Cl)C(=O)OC1OC (stereo unspecified)
- inhibition at 100 µM (A549): 80.5%

SMILES: COC1OC(=O)C(Br)=C1n1cnc2cc(C)c(C)cc21 (stereo unspecified)
- MIC50 (Pseudomonas aeruginosa): 8 µg/mL (≈ 23.7 µM)
- MIC50 (Escherichia coli [20]): 2 µg/mL (≈ 5.93 µM)
- MIC50 (Klebsiella pneumoniae): 16 µg/mL (≈ 47.5 µM)

SMILES: O=C(N[C@H]1C[C@@H]1c1ccccc1)C1=C(Nc2ccc(Cl)cc2)COC1=O
- inhibition in vivo at 100 mg/kg [21]: 92%
- inhibition in vivo at 100 mg/kg [22]: 94%
- inhibition in vivo at 100 mg/kg [23]: 100%
